Data on three compounds can be found in patent US20240246934A1, “QUINAZOLINE-BASED COMPOUND, COMPOSITION, AND APPLICATION OF QUINAZOLINE-BASED COMPOUND” (BEIJING SCITECH-MQ PHARMACEUTICALS LIMITED, priority 2021, published 2024).

Data set [1] has as its target T1, HER2 kinase (Homo sapiens, UniProt P04626).
T1 construct: purchased Carna Biosciences 08-016
Description: HER2 kinase assay (ULight/PT66 TR-FRET). Type of data set: biochemical. A digest of the protocol: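 HER2 kinase preincubated 5 min with compounds (11-point 3-fold series, duplicates), then reacted 120 min at room temperature with ATP and ULight-poly GT peptide, each prepared at 4× working concentration (40 μM ATP, 400 nM substrate, 40 nM kinase). PT66 antibody added for 60 min, TR-FRET read; IC50 from inhibition curves.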
On the technique in general: Time-resolved FRET reads energy transfer from a long-lived donor to a nearby acceptor.

Data set [2] addresses EGFR^WT kinase (Homo sapiens, UniProt P00533). Description: EGFR^WT kinase assay (ULight/PT66 TR-FRET). It is filed as biochemical. A digest of the protocol:
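Enzyme preincubated 5 min with compound (11-point 3-fold series, duplicate), then ULight-JAK-1 (Tyr1023) peptide and ATP added at 4× stocks of 400 nM and 600 μM; 120 min reaction at room temperature. PT66 antibody TR-FRET read after 60 min; IC50 fitted from inhibition rates.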

Data set [3] addresses Ba/F3 HER2 A775_G776insYVMA cells (Homo sapiens, UniProt P04626, DUP772-775, cells depend on it). The data set can be described thus: Inhibition of cell proliferation, CTG method, Ba/F3 HER2 A775_G776insYVMA. The settings on record: 72 hours, read-out: Ba/F3 HER2 A775-G776insYVMA IC50. It is filed as cell-based. The method in brief: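 Ba/F3 HER2 A775_G776insYVMA cells in RPMI1640 with 10% FBS were plated at 3000 cells/well and treated directly with compound (top 10 μM, 4-fold, 9 concentrations, duplicates).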

The nature of data set [4]: Brain tissue and whole blood concentration in SD rats after oral administration. It is filed as in vivo. The settings on record: rat, PO 10 mg/kg, 2 h after administration. Here is the method:
In this assay, the pharmacokinetic characteristics of the compounds of the present application were assayed after administration of some of the compounds of the present application to SD rats by single oral administration and intravenous injection.
2. […] The mixture was stirred, vortexed and/or sonicated. Once a solution was obtained, the vehicle was gradually added to a final volume to reach the target concentration. The solution was vortexed, and sonicated to obtain a homogeneous solution.
Meanwhile, the IV group was not fasted and the PO group was fasted overnight (>12 hrs) and given food 2 hrs after drug administration. All animals had free access to water. The dosing regimen and pharmacokinetic sampling regimen are given in Table 6 and Table 7 below, respectively.
Rats were administered according to the above regimen, and blood and brain tissue samples were collected and processed at predetermined time points (collection and processing were performed according to conventional methods in the art).
The supernatant was diluted 2-fold with ultra-pure water, and the samples were analyzed by LC/MS.
Brain tissues were weighed and homogenized by adding 4-fold homogenizing solution (acetonitrile/water=1/1 v/v). […] The supernatant was diluted 2-fold with ultra-pure water, and the samples were analyzed by LC/MS.

For data set [5], the system named is BT474 cells. The data set can be described thus: Inhibition of cell proliferation, CTG method, BT474. Type of data set: cell-based. As to conditions: Homo sapiens, BT-474, 72 hours, read-out: hBT474 IC50. An excerpt: (§1) The present application examined the in vitro anti-proliferative activity of the compounds of the present disclosure against in vitro cultured BT474, NCI-N87, Ba/F3-EGFR-VIII and Ba/F3 HER2 A775_G776insYVMA and Ba/F3 EGFR D770_N771insSVD cell lines by CTG method.
(§2) Reagents and consumables: RPMI1640 (ThermoFisher, Cat. No. C11875500BT); fetal bovine serum (Hyclone, Cat. No. SV30087.03); 0.25% trypsin-EDTA (ThermoFisher, Cat. No. 25200-072); penicillin-streptomycin (Hyclone, Cat. No. SV30010); DMSO (Amresco, Cat. No. 0231-500ML); CTG assay kit (Promega, Cat. No. G924C); 96-well plate (Corning, Cat. No. 3603); multifunctional plate reader (Perkin Elmer, Cat. No. Envision)
(§3) Cell lines: BT474 (from the cell bank of Chinese Academy of Sciences), NCI-N87 (from ATCC), Ba/F3-EGFR-VIII, Ba/F3 HER2 A775_G776insYVMA and Ba/F3 EGFR D770_N771insSVD (all from KYinno Biotechnology (Beijing) Co., Ltd.); all of the above cells were cultured with RPMI1640 medium containing 10% fetal bovine serum, 100 U/mL penicillin, and 100 μg/mL streptomycin in the culture process.
1. […]
(§4) 4. The cells were cultured for another 72 hours, and then cell viability was detected by CTG assay kit. Signal values were read with a multifunctional plate reader (Perkin Elmer). GraphPad Prism software was used to create a dose-response curve and IC50 was calculated.

Data set [6] concerns NCI-N87 cells. The data set can be described thus: Inhibition of cell proliferation, CTG method, NCI-N87. Type of data set: cell-based. As to conditions: Homo sapiens, 72 hours, read-out: hNCI-N87 IC50.
Excerpt: as §1, §2, §3
1. The assay compound was dissolved with DMSO to form a stock solution and a gradient dilution was performed, followed by dilution with the corresponding medium to obtain a solution with 5-fold working concentration.
2. Cells in logarithmic growth phase were adjusted to specific cell densities by dilution with culture medium, and 80 μL of cell suspension was added to a 96-well plate, such that plating densities of cells of BT474, NCI-N87, Ba/F3-EGFR-VIII, Ba/F3 HER2 A775_G776insYVMA and Ba/F3 EGFR D770_N771insSVD were all 3000 cells/well. The cells of Ba/F3-EGFR-VIII, Ba/F3 HER2 A775_G776insYVMA and Ba/F3 EGFR D770_N771insSVD were used directly in the next step (treatment with compound), whereas the BT474 and NCI-N87 needed to be cultured overnight in a 37° C., 5% carbon dioxide gas incubator to adhere to the wall, and then treated with compounds.
3. 20 μL of compound solution was added to each well of the 96-well plate that had been inoculated with cells. The highest concentration of the assayed compound was 10 μM, 4-fold serial dilution, a total of 9 concentrations, and duplicate wells. A control group without compound was also set up.
as §4

Like-named read-outs stand apart in the source and are kept apart here.

T1 sequence (P04626 23-1255): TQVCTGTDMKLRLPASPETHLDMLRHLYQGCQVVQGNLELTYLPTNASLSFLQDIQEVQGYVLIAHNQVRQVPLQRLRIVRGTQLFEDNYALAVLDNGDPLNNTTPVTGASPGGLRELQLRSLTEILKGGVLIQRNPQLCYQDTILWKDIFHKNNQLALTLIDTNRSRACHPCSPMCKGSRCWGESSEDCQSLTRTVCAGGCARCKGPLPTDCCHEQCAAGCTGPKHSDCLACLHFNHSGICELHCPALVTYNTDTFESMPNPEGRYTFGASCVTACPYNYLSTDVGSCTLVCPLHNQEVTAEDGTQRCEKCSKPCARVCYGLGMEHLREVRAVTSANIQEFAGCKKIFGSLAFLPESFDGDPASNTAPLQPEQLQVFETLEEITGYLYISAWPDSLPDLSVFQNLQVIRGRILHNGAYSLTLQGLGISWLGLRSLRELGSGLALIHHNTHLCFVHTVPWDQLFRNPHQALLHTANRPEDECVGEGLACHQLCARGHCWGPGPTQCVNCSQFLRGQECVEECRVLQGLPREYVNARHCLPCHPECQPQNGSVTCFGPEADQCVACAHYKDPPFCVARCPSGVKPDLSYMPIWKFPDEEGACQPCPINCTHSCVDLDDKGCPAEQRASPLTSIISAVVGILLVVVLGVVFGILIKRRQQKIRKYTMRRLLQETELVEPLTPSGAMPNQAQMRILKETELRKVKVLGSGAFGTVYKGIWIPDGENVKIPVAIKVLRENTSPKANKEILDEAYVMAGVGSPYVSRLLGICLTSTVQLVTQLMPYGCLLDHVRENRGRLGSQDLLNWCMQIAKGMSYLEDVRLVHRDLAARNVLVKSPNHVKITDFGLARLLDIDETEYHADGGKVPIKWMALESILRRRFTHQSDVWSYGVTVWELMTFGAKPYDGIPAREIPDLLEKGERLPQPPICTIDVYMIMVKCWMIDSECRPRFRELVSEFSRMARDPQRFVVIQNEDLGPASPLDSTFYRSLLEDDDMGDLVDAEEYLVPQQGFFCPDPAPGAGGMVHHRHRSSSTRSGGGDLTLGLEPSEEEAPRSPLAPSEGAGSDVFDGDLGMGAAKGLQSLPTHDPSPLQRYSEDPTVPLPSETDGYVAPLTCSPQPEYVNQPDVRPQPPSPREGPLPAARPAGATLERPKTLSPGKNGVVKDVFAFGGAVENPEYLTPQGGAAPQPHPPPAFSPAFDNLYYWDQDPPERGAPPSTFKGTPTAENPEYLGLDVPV
Sequence of EGFR^WT kinase (P00533 25-1210): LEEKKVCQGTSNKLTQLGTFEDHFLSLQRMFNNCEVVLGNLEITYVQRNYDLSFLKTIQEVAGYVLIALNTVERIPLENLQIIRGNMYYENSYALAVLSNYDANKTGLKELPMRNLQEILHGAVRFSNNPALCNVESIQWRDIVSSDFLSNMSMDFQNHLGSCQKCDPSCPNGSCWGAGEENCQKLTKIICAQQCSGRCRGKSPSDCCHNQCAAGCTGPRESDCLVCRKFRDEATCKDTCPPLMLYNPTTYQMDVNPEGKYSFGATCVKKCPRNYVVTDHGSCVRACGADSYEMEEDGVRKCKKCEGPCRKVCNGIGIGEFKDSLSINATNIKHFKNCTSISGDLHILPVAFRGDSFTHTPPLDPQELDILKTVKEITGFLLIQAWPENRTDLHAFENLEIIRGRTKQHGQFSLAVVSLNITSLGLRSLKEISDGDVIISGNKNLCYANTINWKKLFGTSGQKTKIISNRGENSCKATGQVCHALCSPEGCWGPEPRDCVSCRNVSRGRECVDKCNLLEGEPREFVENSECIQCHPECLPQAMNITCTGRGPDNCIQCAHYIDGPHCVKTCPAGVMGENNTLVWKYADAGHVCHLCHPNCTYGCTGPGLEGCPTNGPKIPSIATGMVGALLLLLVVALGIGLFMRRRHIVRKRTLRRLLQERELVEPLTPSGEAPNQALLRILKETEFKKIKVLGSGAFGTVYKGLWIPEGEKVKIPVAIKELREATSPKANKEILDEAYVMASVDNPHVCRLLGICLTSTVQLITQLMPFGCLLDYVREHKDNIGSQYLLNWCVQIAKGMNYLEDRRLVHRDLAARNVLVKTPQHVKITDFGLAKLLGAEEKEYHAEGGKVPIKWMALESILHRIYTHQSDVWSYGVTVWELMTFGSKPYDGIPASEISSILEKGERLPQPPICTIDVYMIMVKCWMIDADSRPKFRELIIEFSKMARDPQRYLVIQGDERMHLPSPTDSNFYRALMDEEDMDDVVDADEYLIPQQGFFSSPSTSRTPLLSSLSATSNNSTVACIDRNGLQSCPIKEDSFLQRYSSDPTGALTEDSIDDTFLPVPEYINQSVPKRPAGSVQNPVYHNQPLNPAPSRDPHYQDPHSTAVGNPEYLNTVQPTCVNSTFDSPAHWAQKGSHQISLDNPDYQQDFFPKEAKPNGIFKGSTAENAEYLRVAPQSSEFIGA
Sequence of Ba/F3 HER2 A775_G776insYVMA cells (P04626 with tags, fused parts or gaps DUP772-775): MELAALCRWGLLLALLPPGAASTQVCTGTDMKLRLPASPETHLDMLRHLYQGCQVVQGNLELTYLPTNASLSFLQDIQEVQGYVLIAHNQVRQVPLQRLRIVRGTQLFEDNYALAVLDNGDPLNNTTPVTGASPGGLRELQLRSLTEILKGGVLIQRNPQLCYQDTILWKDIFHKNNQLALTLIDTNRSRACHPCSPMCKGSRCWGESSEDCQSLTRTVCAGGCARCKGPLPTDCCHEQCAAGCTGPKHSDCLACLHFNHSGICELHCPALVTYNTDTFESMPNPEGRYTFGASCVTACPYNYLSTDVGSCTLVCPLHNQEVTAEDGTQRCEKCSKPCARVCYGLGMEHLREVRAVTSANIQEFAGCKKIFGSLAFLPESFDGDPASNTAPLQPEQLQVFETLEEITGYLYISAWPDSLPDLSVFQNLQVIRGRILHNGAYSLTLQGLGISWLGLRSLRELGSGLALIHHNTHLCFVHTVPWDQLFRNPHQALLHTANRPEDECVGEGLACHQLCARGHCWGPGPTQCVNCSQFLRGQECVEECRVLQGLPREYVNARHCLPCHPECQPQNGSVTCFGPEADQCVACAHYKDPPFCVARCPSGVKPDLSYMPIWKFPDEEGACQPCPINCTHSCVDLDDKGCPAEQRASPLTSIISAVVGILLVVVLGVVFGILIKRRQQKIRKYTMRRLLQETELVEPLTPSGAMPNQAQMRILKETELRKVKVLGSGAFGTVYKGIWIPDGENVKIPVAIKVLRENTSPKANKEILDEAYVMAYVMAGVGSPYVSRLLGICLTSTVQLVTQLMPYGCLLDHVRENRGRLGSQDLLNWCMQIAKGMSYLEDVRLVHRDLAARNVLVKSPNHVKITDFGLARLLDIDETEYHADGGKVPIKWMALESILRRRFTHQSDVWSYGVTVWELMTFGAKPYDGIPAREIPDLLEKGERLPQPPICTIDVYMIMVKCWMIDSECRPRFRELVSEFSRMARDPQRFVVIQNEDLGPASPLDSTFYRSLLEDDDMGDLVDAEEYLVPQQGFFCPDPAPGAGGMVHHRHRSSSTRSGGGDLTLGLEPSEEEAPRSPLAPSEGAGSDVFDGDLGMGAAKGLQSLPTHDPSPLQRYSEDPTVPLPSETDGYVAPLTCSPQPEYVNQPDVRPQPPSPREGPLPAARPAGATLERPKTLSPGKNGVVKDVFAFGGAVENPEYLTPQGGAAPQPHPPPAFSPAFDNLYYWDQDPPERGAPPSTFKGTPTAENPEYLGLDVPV

With `CCN1CCC[C@@H]1/C=C/C(=O)Nc1ccc2ncnc(Nc3ccc(OCc4ccccn4)c(Cl)c3)c2c1OC` [Example 29, (R,E)-N-(4-((3-chloro-4-(pyridin-2-ylmethoxy)phenyl)amino)-5-methoxyquinazolin-6-yl)-3-(1-ethylpyrrolidin-2-yl)acrylamide], the IC50 in data set [1] and in data set [2] was < 10 nM in each case. The GI50 in data set [3] was < 1 nM. Moreover, the concentration at 2 h in data set [4] (whole blood, read-out: Blood drug concentration) turned out to be 121 ng/mL; in data set [4] (brain, NA: Exposure was too low to be counted, read-out: Brain tissue concentration), 43.5 ng/g. For the same compound, the Kp at 2 h in data set [4] (brain / whole blood, read-out: Brain tissue/blood ratio) stood at 0.36.
For the compound `COc1c(NC(=O)/C=C/[C@H]2CCCN2C)ccc2ncnc(Nc3ccc(OCc4ccccn4)c(Cl)c3)c12` [Example 4, (R,E)-N-(4-((3-chloro-4-(pyridin-2-ylmethoxy)phenyl)amino)-5-methoxyquinazolin-6-yl)-3-(1-methylpyrrolidin-2-yl)acrylamide], the IC50 (in general, the concentration that gives 50% inhibition) was < 10 nM in data set [1], < 10 nM in data set [2], 5 to 10 nM in data set [5] and < 1 nM in data set [6]. For the same compound, the GI50 in data set [3] was < 1 nM.
Consider `COCCCOc1c(NC(=O)/C=C/[C@H]2CCCN2C)ccc2ncnc(Nc3ccc(OCc4ccccn4)c(Cl)c3)c12` [Example 9, (R,E)-N-(4-((3-chloro-4-(pyridin-2-ylmethoxy)phenyl)amino)-5-(3-methoxypropoxy)quinazolin-6-yl)-3-(1-methylpyrrolidin-2-yl)acrylamide], for which the IC50 in data set [1] and in data set [2] was < 10 nM each time. The GI50 in data set [3] was in the range of 1 to 5 nM.
